Assay results from patent publication US12649750B2, “Macrocyclic compounds, compositions, and methods of using thereof” (Sionna Therapeutics Inc., priority 2022, dated 2026).

Each compound was assayed against T1, NBD1 (Homo sapiens, UniProt P13569) (assay: Aggregation analysis using differential static light scattering (DSLS), thermal stability of NBD1 (ΔTagg)). Settings: ΔTagg versus DMSO control, NBD1 0.2 mg/ml.
T1 construct: Purified recombinant NBD1 was produced using previously described methods; made in house
T1 sequence (P13569 423-646 limits assumed): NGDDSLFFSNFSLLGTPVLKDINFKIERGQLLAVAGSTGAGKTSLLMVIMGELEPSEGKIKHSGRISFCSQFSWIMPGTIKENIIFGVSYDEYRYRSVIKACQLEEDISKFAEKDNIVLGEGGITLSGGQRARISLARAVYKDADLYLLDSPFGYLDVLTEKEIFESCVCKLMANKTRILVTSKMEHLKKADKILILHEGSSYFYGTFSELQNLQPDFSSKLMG
Type: binding
Protocol: Example 386. Aggregation Analysis Using Differential Static Light Scattering (DSLS)
Purified recombinant NBD1 was produced using previously described methods (A. Schmidt, J. L. Mendoza, P. J. Thomas (2011) Biochemical and Biophysical Approaches to Probe CFTR Structure (365-376) M. D. Amaral, K. Kunzelmann (eds.), Cystic Fibrosis, Methods in Molecular Biology 741, Springer Science+Business Media). The effect of test compounds on thermal stability of NBD1 was evaluated by differential static light scattering (DSLS) using the Harbinger Stargazer-384 instrument (Epiphyte Three, Toronto, Canada). Test compounds were dissolved and diluted to desired concentrations in 100% DMSO. The compounds or DMSO controls (100 nL) were stamped into wells of a […] low volume optical plate (Corning Inc., Corning, NY) using the Echo 555 acoustic liquid handler (Labcyte Inc., San Jose, CA).
NBD1 protein was diluted to 0.2 mg/ml in S200 buffer (50 mM Tris-HCl, 150 mM NaCl, 5 mM MgCl2, 2 mM ATP, 2 mM DTT, pH7.6) containing 1% glycerol. 10 uL of protein solution was aliquoted into the 384-well plate harboring the test compounds and 10 uL mineral oil was overlaid onto the protein solution, using the epMotion robotic liquid handler (Eppendorf North America, Hauppauge, NY). After placing into the Stargazer instrument, the plate was heated at 1° C. per minute to 70° C. Images were captured from 25° C. to 70° C. every 0.5° C. At the end of the experiment run, instrument software integrated image files and analyzed data automatically. A […] regression curve was generated for each well, representing the increase in light scattering over time. A temperature of aggregation (Tagg) was calculated based on the inflection point of the curve. To better compare data across experiments the average Tagg for DMSO control wells was calculated and subtracted from values for wells containing compounds to obtain a “ΔTagg” value. These ΔTagg values reflect stabilizing efficacy of the compounds. As set forth in Table 2 below, an ΔTagg value less than or equal to 5° C. is marked “A”; a value above 5° C. and less than or equal to 10° C. is marked “B”; a value greater than 10° C. and less than or equal to 25° C. is marked “C”.

Structure (SMILES) | DSLS 3D (100 μM ΔT)
C[C@@H](Cc1cccc(C2(C)CCCC(C)(C)CS(=O)(=O)CCc3c(c(F)cc4[nH]ccc34)Sc3ccnc(c3)-c3nc2nn3C)n1)C(=O)O (single isomer, unassigned) [Compound 314A] | A (an ΔTagg value less than or equal to 5 °C is marked “A”)
C[C@@H](Cc1cccc(C2(C)CCCC(C)(C)CS(=O)(=O)CCc3c(c(F)cc4[nH]ccc34)Sc3ccnc(c3)-c3nc2nn3C)n1)C(=O)O (single isomer, unassigned) [Compound 314B] | B (a value above 5 °C and less than or equal to 10 °C is marked “B”)
C[C@@H](Cc1cccc(C2(C)CCCC(C)(C)CS(=O)(=O)CCc3c(c(F)cc4[nH]ccc34)[S+]([O-])c3ccnc(c3)-c3nc2nn3C)n1)C(=O)O (single isomer, unassigned) [Compound 315A] | A (an ΔTagg value less than or equal to 5 °C is marked “A”)
C[C@@H](Cc1cccc(C2(C)CCCC(C)(C)CS(=O)(=O)CCc3c(c(F)cc4[nH]ccc34)[S+]([O-])c3ccnc(c3)-c3nc2nn3C)n1)C(=O)O (single isomer, unassigned) [Compound 315B] | A (an ΔTagg value less than or equal to 5 °C is marked “A”)
C[C@@H](Cc1cccc(C2(C)CCCC(C)(C)CS(=O)(=O)CCc3c(c(F)cc4[nH]ccc34)[S+]([O-])c3ccnc(c3)-c3nc2nn3C)n1)C(=O)O (single isomer, unassigned) [Compound 315C] | A (an ΔTagg value less than or equal to 5 °C is marked “A”)
C[C@@H](Cc1cccc(C2(C)CCCC(C)(C)CS(=O)(=O)CCc3c(c(F)cc4[nH]ccc34)[S+]([O-])c3ccnc(c3)-c3nc2nn3C)n1)C(=O)O (single isomer, unassigned) [Compound 315D] | B (a value above 5 °C and less than or equal to 10 °C is marked “B”)
CC1c2ccnc(c2)-c2nc(nn2C)[C@@](C)(c2cccc(C[C@H](C)C(=O)O)c2)CCCC(C)(C)CS(=O)(=O)CCc2c1c(F)c(F)c1[nH]ccc21 (single isomer, unassigned) [Compound 316A] | B (a value above 5 °C and less than or equal to 10 °C is marked “B”)
CC1c2ccnc(c2)-c2nc(nn2C)[C@@](C)(c2cccc(C[C@H](C)C(=O)O)c2)CCCC(C)(C)CS(=O)(=O)CCc2c1c(F)c(F)c1[nH]ccc21 (single isomer, unassigned) [Compound 316B] | A (an ΔTagg value less than or equal to 5 °C is marked “A”)
CC1c2ccnc(c2)-c2nc(nn2C)[C@@](C)(c2cccc(C[C@@H](C)C(=O)O)c2)CCCC(C)(C)CS(=O)(=O)CCc2c1c(F)c(F)c1[nH]ccc21 (single isomer, unassigned) [Compound 317A] | B (a value above 5 °C and less than or equal to 10 °C is marked “B”)
CC1c2ccnc(c2)-c2nc(nn2C)[C@@](C)(c2cccc(C[C@@H](C)C(=O)O)c2)CCCC(C)(C)CS(=O)(=O)CCc2c1c(F)c(F)c1[nH]ccc21 (single isomer, unassigned) [Compound 317B] | A (an ΔTagg value less than or equal to 5 °C is marked “A”)
CC1c2ccnc(c2)-c2nc(nn2C)[C@@](C)(c2cccc(CC(C)(C)C(=O)O)c2)CCCC(C)(C)CS(=O)(=O)CCc2c1c(F)c(F)c1[nH]ccc21 (single isomer, unassigned) [Compound 318A] | A (an ΔTagg value less than or equal to 5 °C is marked “A”)
CC1c2ccnc(c2)-c2nc(nn2C)[C@@](C)(c2cccc(CC(C)(C)C(=O)O)c2)CCCC(C)(C)CS(=O)(=O)CCc2c1c(F)c(F)c1[nH]ccc21 (single isomer, unassigned) [Compound 318B] | A (an ΔTagg value less than or equal to 5 °C is marked “A”)
C[C@H](Cc1cccc([C@@]2(C)CCCC(C)(C)CS(=O)(=O)CCc3c(c(F)c(F)c4[nH]ccc34)[S+]([O-])c3ccc(F)c(c3)-c3nc2nn3C)c1)C(=O)O (single isomer, unassigned) [Compound 319] | B (a value above 5 °C and less than or equal to 10 °C is marked “B”)
Cn1nc2nc1-c1cc(ccc1F)[S+]([O-])c1c(F)c(F)c3[nH]cc(CC(=O)O)c3c1CCS(=O)(=O)CC(C)(C)CCC[C@]2(C)c1ccccc1 (single isomer, unassigned) [Compound 326] | A (an ΔTagg value less than or equal to 5 °C is marked “A”)
C[C@@H](Cc1cccc([C@@]2(C)CCCC(C)(C)CS(=O)(=O)CCc3c(c(F)cc4[nH]ccc34)[S+]([O-])c3cccc(c3)-c3coc2n3)c1)C(=O)O (single isomer, unassigned) [Compound 330] | A (an ΔTagg value less than or equal to 5 °C is marked “A”)
Cn1nc2nc1-c1cc(ccn1)[S+]([O-])c1c(F)cc3[nH]ccc3c1CCS(=O)(=O)CC(C)(C)CCC[C@]2(C)c1cccc(C[C@H](O)CO)c1 (single isomer, unassigned) [Compound 334] | B (a value above 5 °C and less than or equal to 10 °C is marked “B”)
Cn1nc2nc1-c1cc(ccn1)[S+]([O-])c1c(F)cc3[nH]ccc3c1CCS(=O)(=O)CC(C)(C)CCC[C@]2(C)c1cccc(C[C@@H](O)CO)c1 (single isomer, unassigned) [Compound 337] | A (an ΔTagg value less than or equal to 5 °C is marked “A”)
Cn1nc2nc1-c1cc(ccn1)[S+]([O-])c1c(F)c(F)c3[nH]ccc3c1CCS(=O)(=O)CC(C)(C)CCC[C@]2(C)c1cccc(C[C@H](O)CO)c1 (single isomer, unassigned) [Compound 341] | B (a value above 5 °C and less than or equal to 10 °C is marked “B”)
CNC(=O)[C@H](C)Cc1cccc([C@@]2(C)CCCC(C)(C)CS(=O)(=O)CC(NC)c3c(c(F)c(F)c4[nH]ccc34)Oc3ccc(F)c(c3)-c3nc2nn3C)c1 (single isomer, unassigned) [Compound 360B] | B (a value above 5 °C and less than or equal to 10 °C is marked “B”)
CNC(=O)[C@H](C)Cc1cccc([C@@]2(C)CCCC(C)(C)CS(=O)(=O)CC(NC)c3c(c(F)c(F)c4[nH]ccc34)Oc3ccc(F)c(c3)-c3nc2nn3C)c1 (single isomer, unassigned) [Compound 360C] | A (an ΔTagg value less than or equal to 5 °C is marked “A”)
Cn1nc2nc1-c1cc(ccn1)[S+]([O-])c1c(F)cc3[nH]cc(CC(=O)O)c3c1CCS(=O)(=O)CC(C)(C)CCC[C@]2(C)c1ccccc1 (single isomer, unassigned) [Compound 365] | A (an ΔTagg value less than or equal to 5 °C is marked “A”)
C[C@H](Cc1cccc([C@@]2(C)CCCC(C)(C)CS(=O)(=O)CC(N(C)C)c3c(c(F)c(F)c4[nH]ccc34)Oc3ccc(F)c(c3)-c3nc2nn3C)c1)C(=O)N(C)C (single isomer, unassigned) [Compound 367A] | A (an ΔTagg value less than or equal to 5 °C is marked “A”)
C[C@H](Cc1cccc([C@@]2(C)CCCC(C)(C)CS(=O)(=O)CC(N(C)C)c3c(c(F)c(F)c4[nH]ccc34)Oc3ccc(F)c(c3)-c3nc2nn3C)c1)C(=O)N(C)C (single isomer, unassigned) [Compound 367B] | A (an ΔTagg value less than or equal to 5 °C is marked “A”)
CNC(=O)[C@@H](C)Cc1cccc([C@@]2(C)CCCC(C)(C)CS(=O)(=O)CC(NC)c3c(c(F)cc4[nH]ccc34)Sc3ccc(F)c(c3)-c3nc2nn3C)c1 (single isomer, unassigned) [Compound 368A] | B (a value above 5 °C and less than or equal to 10 °C is marked “B”)
